SMILES strings stand for the structures. Converted amounts (≈) assume the structure as drawn. Where two headings read alike, the source gives them in different places. Bounds are passed on as bounds.

One data set concerns CT-26 cancer cell. Description: Growth inhibition of CT-26 cancer cell (MTT). Particulars: for IC50: CT-26, MTT, 2 days; for improved activity compared with Imatinib mesylate: CT-26. It counts as cell-based. How it is done: (§1) In the present experiment, the inhibitory activity of the compound of formula (1) was determined against the growth of K562 cancer cell. First, the cells were allowed to stand in RPMI (Roswell Park Memorial Institute)-1640 medium containing 10% (v/v) fetal bovine serum in an incubator of 37° C. and 5% by volume of CO2. The cancer cells (1000 cells) were transferred to a 96-well plate, and the test compound was diluted. The plate was allowed to stand under the above mentioned conditions for 2 days. After this treatment, to the cells was added 0.2% MTT (3-[4,5-dimethylthiazol-2-yl]-2,5-diphenyltetrazolium bromide) solution, and the resulting mixture was allowed to stand under the constant temperature-condition for 4 hours. The supernatant was removed to leave the resulting crystal. DMSO was added to dissolve the crystal, and the absorbance of the solution was measured at 540 nm. IC50 value was calculated using a computer system according to the following formula: (OD540(test)−OD540(blank)/OD540(control)−OD540(blank))×100
In the present experiment, the inhibitory activity of the compounds of formula (1) was determined against the growth of CT-26 cancer cell. The test was performed according to the same procedure as Experiment 1.

The subject of the next data set is K562 cancer cell. Description: Growth inhibition of K562 cancer cell (MTT). Format: cell-based. The conditions noted are these: for IC50: Homo sapiens, K562, 48 h, K562, MTT, 2 days; for improved activity compared with Imatinib mesylate: K562. How it is done: as §1
The next data set relates to KB. Description: Growth inhibition of oral epithelial cancer cell KB (MTT). It counts as cell-based. Here is the method:
as §1
(§2) The test was performed according to the same procedure as Experiment 1.

For another data set, the system named is A-172. Description: Growth inhibition of encephalophyma cell A-172 (MTT). It counts as cell-based. The conditions noted are these: Homo sapiens; A-172, Experiment 3. Here is the method:
as §1, §2

In another data set the test system is mice (ICR). Description: Acute toxicity test in mice (oral administration). It counts as in vivo. Particulars: mice (ICR), oral 2,000 mg/kg, 14 days. Here is the method:
(§3) In order to determine the acute toxicity of the compound of the present invention when the compound is orally administered, mice (ICR, 24˜26 g) were fasted for 16 hours. One group consists of 10 males and 10 females. The first group is the control group and 0.5% sodium carboxymethyl cellulose (CMC) was administered per oral to this group. The compounds of Examples 5 and 8 were orally administered in a dosage of 2,000 mg/kg, the maximum dosage in acute toxicity test, to each test group. […] On the last day of the test, 14th day from the start, the mice were subjected to an autopsy in order to examine changes of the internal organs. […] Further, since no mouse died during the test period, it was confirmed that the compounds of Examples 5 and 8 have LD50 of 2,000 mg/kg or more. This means that the compounds of the present invention including those of Examples 5 and 8 are safe in the aspect of acute toxicity.

Data set [1] can be described thus: Acute toxicity test in mice (oral administration). It counts as in vivo. Particulars: both sexes, ICR, mouse, in vivo, po. How it is done:
as §3

In the next data set the test system is SNU-C1. Description: Growth inhibition of colon cancer cell SNU-C1 (MTT). It counts as cell-based. Particulars: Homo sapiens; SNU-C1, Experiment 3. How it is done: as §1, §2
The next data set deals with SNU-1. Description: Growth inhibition of gastric cancer cell SNU-1 (MTT). Format: cell-based. How it is done: as §1, §2, §2
The test system of another data set is Panc-1. Description: Growth inhibition of pancreatic cancer cell Panc-1 (MTT). Format: cell-based. The conditions noted are these: Homo sapiens; Panc-1, Experiment 3. How it is done:
as §1, §2

Another data set relates to Sarcoma-180. Description: Growth inhibition of Sarcoma-180 (MTT). It counts as cell-based. Particulars: for IC50: Sarcoma-180, Experiment 4. How it is done:
as §1, §2

A further data set deals with RPMI-6666. Description: Growth inhibition of lymphoma cell RPMI-6666 (MTT). It counts as cell-based. Particulars: Homo sapiens; RPMI-6666, Experiment 3. Here is the method: as §1, §2
The subject of the next data set is A549. Description: Growth inhibition of lung cancer cell A549 (MTT). Format: cell-based. Here is the method: as §1, §2, §2
A further data set can be described thus: in vivo. Particulars: male, Sprague-Dawley, rat, po, 100 mg/kg.
Data set [2] is described as follows: Acute toxicity test in rat (oral administration). It counts as in vivo. The conditions noted are these: both sexes, SD, rat, in vivo, po. How it is done: (§4) In this test, the acute toxicity of the compound of the present invention when the compound is […] was determined on rat (SD-Rat, 100˜110 g). One group consists of 5 males and 5 females. The first group is the control group and 0.5% CMC was intravenously administered to this group. The compounds of Examples 5 and 8 were orally administered in a dosage of 1,000, 2,000 mg/kg, respectively, to each test group. […] On the last day of the test, 14th day from the start, the rat were subjected to an autopsy in order to examine changes of the internal organs. […] Further, since no […] died during the test period, it was confirmed that the compounds of Examples 5 and 8 have LD50 of 2,000 mg/kg or more. This means that the compounds of the present invention including those of Examples 5 and 8 are safe in the aspect of acute toxicity.

The subject of the next data set is rat (SD-Rat). Description: Acute toxicity test in rat (oral administration). Format: in vivo. The conditions noted are these: SD-Rat, orally 1,000, 2,000 mg/kg, 14 days. How it is done: as §4
Another data set deals with SK-OV-03. Description: Growth inhibition of ovarian cancer cell SK-OV-03 (MTT). The conditions noted are these: for IC50: SK-OV-03, Experiment 4. It counts as cell-based. Here is the method:
as §1, §2

Setting [3] is: Mus musculus, CT26, 48 h, read-out: IC50.

For the compound `Cc1ccc(C(=O)Nc2cc(-n3ccnc3C)cc(C(F)(F)F)c2)cc1Nc1nccc(-c2nccnc2C)n1` [Example 13, 4-methyl-N-[3-(2-methylimidazol-1-yl)-5-trifluoromethyl-phenyl]-3-[4-(3-methylpyrazin-2-yl)-pyrimidin-2-ylamino]-benzamide], the half-maximal inhibitory concentration (IC50) with CT-26 cancer cell (setting [3]) was 3770 ng/mL (≈ 6.92 µM). Also, in the data set on K562 cancer cell, the IC50 is 304 ng/mL (≈ 0.558 µM) and the “improved activity compared with Imatinib mesylate” value is recorded as “much higher activity than Imatinib mesylate”.
Regarding `Cc1ccc(C(=O)Nc2cc(-n3ccnc3C)cc(C(F)(F)F)c2)cc1Nc1nccc(-c2nccs2)n1` [Example 6, 4-methyl-N-[3-(2-methylimidazol-1-yl)-5-trifluoromethyl-phenyl]-3-(4-thiazol-2-yl-pyrimidin-2-ylamino)-benzamide], the “improved activity compared with Imatinib mesylate” value is 300 times with CT-26 cancer cell and 50 times in the data set on K562 cancer cell. Also, the IC50 in the data set on CT-26 cancer cell (setting [3]) was less than 10 ng/mL.
On to `Cc1ccc(C(=O)Nc2cc(-n3ccnc3C)cc(C(F)(F)F)c2)cc1Nc1nccc(-c2cnccn2)n1` [Example 9, 4-methyl-N-[3-(2-methylimidazol-1-yl)-5-trifluoromethyl-phenyl]-3-(4-pyrazin-2-yl-pyrimidin-2-ylamino)-benzamide], for which the “improved activity compared with Imatinib mesylate” value with CT-26 cancer cell turned out to be 300 times; in the data set on K562 cancer cell it was 50 times. The results for the IC50 with CT-26 cancer cell (setting [3]) and in the data set on K562 cancer cell were less than 10 ng/mL and not above 10 ng/mL, respectively.
In the case of `Cc1cn(-c2cc(NC(=O)c3ccc(C)c(Nc4nccc(-c5cnccn5)n4)c3)cc(C(F)(F)F)c2)cn1` [Example 8, 4-methyl-N-[3-(4-methylimidazol-1-yl)-5-trifluoromethyl-phenyl]-3-(4-pyrazin-2-yl-pyrimidin-2-ylamino)-benzamide], the “improved activity than Imatinib mesylate” value with KB is “more than 1×10^4 time”; with SNU-1 (SNU-1, Experiment 4), “more than 170 times”; in the data set on Sarcoma-180 (Sarcoma-180), “more than 1×10^4 time”; with A549 (A549, Experiment 4), more than 3.5 times; in the data set on SK-OV-03 (SK-OV-03) it was more than 12 times. The IC50 was 0.58 ng/mL (≈ 0.00109 µM) in the data set with KB (Homo sapiens, Experiment 4, read-out: IC50); less than 10 ng/mL in the data set on A-172; less than 10 ng/mL in the data set on SNU-C1; less than 10 ng/mL with SNU-1 (Homo sapiens, SNU1, SNU-1, Experiment 3, read-out: IC50); 270 ng/mL (≈ 0.509 µM) with SNU-1 (Homo sapiens, SNU1, SNU-1, Experiment 4, read-out: IC50); 498 ng/mL (≈ 0.939 µM) in the data set with Panc-1. In addition, the IC50 in the data set with Sarcoma-180 (Mus musculus, read-out: IC50) was less than 0.1 ng/mL; with RPMI-6666, less than 10 ng/mL; in the data set with A549 (Homo sapiens, A549, Experiment 3, read-out: IC50) it was 2230 ng/mL (≈ 4.2 µM); with SK-OV-03 (read-out: IC50), 2390 ng/mL (≈ 4.51 µM); with CT-26 cancer cell (setting [3]), less than 10 ng/mL; with K562 cancer cell, not above 10 ng/mL. For the same compound, the “clinical conditions and autopsy” value in the data set with mice (ICR) and with rat (SD-Rat) was “neither abnormal response nor specific autopsy result was observed” in each case. For the same compound, the median lethal dose (LD50) at 14 days in data set [1] and in data set [2] was not below 2000 mg/kg throughout. Moreover, the “improved activity in comparison with cisplatin” value in the data set with SNU-1 (SNU-1, Experiment 4) was “more than 8 times”. The compound also yielded an AUC in “in vivo” of 61300 ng·h/mL. In “in vivo”, this compound came in with a Cmax of 4100 ng/mL. The Tmax in the data set “in vivo” was 12 h. Also, the “improved activity compared with Imatinib mesylate” value came to 300 times with CT-26 cancer cell and 50 times in the data set with K562 cancer cell.
With `Cc1cnc(NC(=O)c2ccc(C)c(Nc3nccc(-c4nccs4)n3)c2)s1` [Example 7, 4-methyl-N-(5-methylthiazol-2-yl)-3-(4-thiazol-2-yl-pyrimidin-2-ylamino)-benzamide], the figures for the “improved activity compared with Imatinib mesylate” value in the data set on CT-26 cancer cell and in the data set on K562 cancer cell were 300 times and 50 times, respectively. For the same compound, the figures for the 50% inhibitory concentration (IC50) in the data set on CT-26 cancer cell (setting [3]) and in the data set with K562 cancer cell were less than 10 ng/mL and not above 10 ng/mL, respectively.
Turning to `Cc1cn(-c2cc(NC(=O)c3ccc(Nc4nccc(-c5cccnc5)n4)cc3)cc(C(F)(F)F)c2)cn1.Cl.Cl` [Example 24, N-[3-(4-methylimidazol-1-yl)-5-trifluoromethyl-phenyl]-4-(4-pyridin-3-yl-pyrimidin-2-ylamino)-benzamide 2 hydrochloride], in the data set with CT-26 cancer cell, the “improved activity compared with Imatinib mesylate” value came to 300 times and the half-maximal inhibitory concentration (IC50) was found to be 2.3 ng/mL. Also, in the data set with K562 cancer cell, the “improved activity compared with Imatinib mesylate” value worked out at 50 times.
Regarding `N.N.[Cl][Pt][Cl]` [Cisplatin, reference compound], the IC50 in the data set on KB (Experiment 4) was 0.28 ng/mL; with SNU-1 (SNU-1, Experiment 4) it was 2064 ng/mL; with Sarcoma-180 it was less than 0.1 ng/mL; in the data set on A549 (A549, Experiment 4) it was 679 ng/mL; in the data set on SK-OV-03, 782 ng/mL.
For `Cc1cn(-c2cc(NC(=O)c3ccc(Nc4nccc(-c5nccs5)n4)cc3)cc(C(F)(F)F)c2)cn1.Cl.Cl` [Example 30, N-[3-(4-methylimidazol-1-yl)-5-trifluoromethyl-phenyl]-4-(4-thiazol-2-yl-pyrimidin-2-ylamino)-benzamide 2 hydrochloride], the “improved activity compared with Imatinib mesylate” value with CT-26 cancer cell is 300 times; in the data set on K562 cancer cell, 50 times. Also, the half-maximal inhibitory concentration (IC50) in the data set with CT-26 cancer cell is 9.4 ng/mL.
With `Cc1cn(-c2cc(NC(=O)c3ccc(C)c(Nc4nccc(-c5nccnc5C)n4)c3)cc(C(F)(F)F)c2)cn1` [Example 12, 4-methyl-N-[3-(4-methylimidazol-1-yl)-5-trifluoromethyl-phenyl]-3-[4-(3-methylpyrazin-2-yl)-pyrimidin-2-ylamino]-benzamide], in the data set with CT-26 cancer cell (setting [3]), the IC50 was determined as 2930 ng/mL (≈ 5.38 µM). Further, in the data set on K562 cancer cell, the midpoint of inhibition, the IC50, lay at 210 ng/mL (≈ 0.386 µM) and the “improved activity compared with Imatinib mesylate” value is on record as “much higher activity than Imatinib mesylate”.
